What all share (experiment): relative viability (nuclei count vs DMSO), 5 days (fraction); higher = more cells survive
Compound in test [1]: COc1cc2nc(N3CCCN(C)CC3)nc(NC3CCN(Cc4ccccc4)CC3)c2cc1OC + C[C@@H](Oc1cc(-c2cnn(C3CCNCC3)c2)cnc1N)c1c(Cl)ccc(F)c1Cl [Crizotinib] (partner 1 µM)
Summed up:
(§1)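 Medians of duplicate plates are given as relative viability. That measure is the nuclei count in treated wells divided by the count in vehicle wells. Counts were taken on 4× images of lung cancer cell lines in 1536-well plates, 5 days after pin-tool dosing the day after seeding with one drug alone or a fixed anchor-drug dose plus five library-drug doses (not always all listed) in √10 steps.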

Compound in test [2]: COc1cc2nc(N3CCCN(C)CC3)nc(NC3CCN(Cc4ccccc4)CC3)c2cc1OC + N=C(N)NC(=N)NCCc1ccccc1 [Phenformin] (partner 250 µM)
The method, boiled down:
as §1

Compound in test [3]: COc1cc2nc(N3CCCN(C)CC3)nc(NC3CCN(Cc4ccccc4)CC3)c2cc1OC + Cc1nc(NC(=O)N2CCC[C@H]2C(N)=O)sc1-c1ccnc(C(C)(C)C(F)(F)F)c1 [Alpelisib] (partner 2 µM)
Summed up: as §1

Compound in test [4]: COc1cc2nc(N3CCCN(C)CC3)nc(NC3CCN(Cc4ccccc4)CC3)c2cc1OC + CC(=O)c1c(C)c2cnc(Nc3ccc(N4CCNCC4)cn3)nc2n(C2CCCC2)c1=O [Palbociclib] (partner 0.5 µM)
Summed up:
as §1

Compound in test [5]: COc1cc2nc(N3CCCN(C)CC3)nc(NC3CCN(Cc4ccccc4)CC3)c2cc1OC + CCNC(=O)c1noc(-c2cc(C(C)C)c(O)cc2O)c1-c1ccc(CN2CCOCC2)cc1 [Luminespib] (partner 0.01 µM)
Summed up: as §1

In the case of UMC-11, the relative viability in test [1] (first compound 0.2 µM) is 0.614; in test [1] (first compound 0.6325 µM), 0.498; in test [1] (first compound 2 µM), 0.673; in test [1] (first compound 6.325 µM), 0.44; in test [2] (first compound 0.2 µM) it was 0.322; in test [2] (first compound 0.6325 µM), 0.346. The relative viability is 0.352 in test [2] (first compound 2 µM); 0.243 in test [2] (first compound 6.325 µM); 0.953 in test [3] (first compound 0.2 µM); 0.973 in test [3] (first compound 0.6325 µM); 1.15 in test [3] (first compound 2 µM); 1.01 in test [3] (first compound 6.325 µM). Besides, the relative viability was 0.374 in test [4] (first compound 0.2 µM); 0.389 in test [4] (first compound 0.6325 µM); 0.317 in test [4] (first compound 2 µM); 0.259 in test [4] (first compound 6.325 µM); 1.06 in test [5] (first compound 0.2 µM); 1.08 in test [5] (first compound 0.6325 µM). In addition, the relative viability stood at 1.05 in test [5] (first compound 2 µM) and 0.816 in test [5] (first compound 6.325 µM).
